Data: PubChem BioAssay (NCI)
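Cells were grown in 96-well plates and exposed to each compound for 48 hours at five concentrations; endpoints were interpolated linearly between bracketing concentrations, or set to the highest concentration if not reached. TGI: total growth inhibition.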

Legend:
Test in all cases: NCI anticancer screen, dose series, 48 h
SN12C renal = tested on: SN12C renal
HCC-2998 colon = tested on: HCC-2998 colon
MDA-N = tested on: MDA-N
M14 melanoma = tested on: M14 melanoma
SF-268 CNS = tested on: SF-268 CNS
UACC-62 melanoma = tested on: UACC-62 melanoma
OVCAR-8 ovarian = tested on: OVCAR-8 ovarian
HCT-15 colon = tested on: HCT-15 colon
TK-10 renal = tested on: TK-10 renal
NCI-H460 lung = tested on: NCI-H460 lung
T-47D breast = tested on: T-47D breast
UO-31 renal = tested on: UO-31 renal
786-0 renal = tested on: 786-0 renal
SF-295 CNS = tested on: SF-295 CNS
MDA-MB-435 = tested on: MDA-MB-435
ACHN renal = tested on: ACHN renal
SF-539 CNS = tested on: SF-539 CNS
CCRF-CEM leukemia = tested on: CCRF-CEM leukemia
MCF7 breast = tested on: MCF7 breast
HL-60(TB) leukemia = tested on: HL-60(TB) leukemia
SK-MEL-28 melanoma = tested on: SK-MEL-28 melanoma
EKVX NSCLC = tested on: EKVX NSCLC
U251 CNS = tested on: U251 CNS
NCI-H23 lung = tested on: NCI-H23 lung
MDA-MB-231 breast = tested on: MDA-MB-231 breast
COLO 205 colon = tested on: COLO 205 colon
A549 NSCLC = tested on: A549 NSCLC
SNB-75 CNS = tested on: SNB-75 CNS
HOP-62 NSCLC = tested on: HOP-62 NSCLC
MOLT-4 leukemia = tested on: MOLT-4 leukemia
SR leukemia = tested on: SR leukemia
NCI-H226 lung = tested on: NCI-H226 lung
RXF 393 renal = tested on: RXF 393 renal
CAKI-1 renal = tested on: CAKI-1 renal
SNB-19 CNS = tested on: SNB-19 CNS
SW-620 colon = tested on: SW-620 colon
HCT-116 colon = tested on: HCT-116 colon
DU-145 prostate = tested on: DU-145 prostate
OVCAR-3 ovarian = tested on: OVCAR-3 ovarian
OVCAR-4 ovarian = tested on: OVCAR-4 ovarian
PC-3 prostate = tested on: PC-3 prostate
SK-OV-3 ovarian = tested on: SK-OV-3 ovarian
UACC-257 melanoma = tested on: UACC-257 melanoma
K-562 leukemia = tested on: K-562 leukemia
BT-549 breast = tested on: BT-549 breast
KM12 colon = tested on: KM12 colon
IGROV1 ovarian = tested on: IGROV1 ovarian
HT29 colon = tested on: HT29 colon
RPMI-8226 leukemia = tested on: RPMI-8226 leukemia
SK-MEL-2 melanoma = tested on: SK-MEL-2 melanoma
HS 578T breast = tested on: HS 578T breast
MALME-3M melanoma = tested on: MALME-3M melanoma
SK-MEL-5 melanoma = tested on: SK-MEL-5 melanoma
OVCAR-5 ovarian = tested on: OVCAR-5 ovarian
LOX IMVI melanoma = tested on: LOX IMVI melanoma

Measured: TGI

C=C(COC(=O)C(C)C)[C@H]1Oc2ccc(C(C)=O)cc2[C@@H]1OC(=O)C(C)C
> 100 µM: all assays above
